Experimental data: PMC4685510, “A Cell Biologist’s Field Guide to Aurora Kinase Inhibitors” (Frontiers in Oncology, 2015)
Like-named read-outs stand apart in the source and are kept apart here.

Experiments:
Test in all cases: biochemical
Assay type in all cases: biochemical
[1] = target: 363 human kinases (including Aurora A/B/C) (Homo sapiens, UniProt O60674); conditions: JAK2; for remaining activity at 0.1 µM: 100 nM; for remaining activity at 0.1 µM / remaining activity at 0.5 µM: read-out: % Enzyme Activity (relative to DMSO controls)
Source text: (§1) However, the Aurora A/B selectivity ratios derived from our in vitro and in vivo data can be compared to prioritize inhibitors.

[2] = target: 363 human kinases (including Aurora A/B/C) (Homo sapiens, UniProt P06493); conditions: for remaining activity at 0.1 µM: 100 nM; for remaining activity at 0.1 µM / remaining activity at 0.5 µM: read-out: % Enzyme Activity (relative to DMSO controls); for remaining activity at 0.5 µM / % Enzyme Activity (relative to DMSO controls): 500 nM
Source text: as §1

[3] = target: 363 human kinases (including Aurora A/B/C) (Homo sapiens, UniProt P09619); conditions: PDGFRb; for remaining activity at 0.1 µM: 100 nM; for remaining activity at 0.1 µM / remaining activity at 0.5 µM: read-out: % Enzyme Activity (relative to DMSO controls)
Source text: as §1

[4] = target: T1, 363 human kinases (including Aurora A/B/C) (Homo sapiens, UniProt Q15139); conditions: PKCmu/PRKD1; for remaining activity at 0.1 µM: 100 nM; for remaining activity at 0.1 µM / remaining activity at 0.5 µM: read-out: % Enzyme Activity (relative to DMSO controls)
T1 sequence (Q15139 1-912): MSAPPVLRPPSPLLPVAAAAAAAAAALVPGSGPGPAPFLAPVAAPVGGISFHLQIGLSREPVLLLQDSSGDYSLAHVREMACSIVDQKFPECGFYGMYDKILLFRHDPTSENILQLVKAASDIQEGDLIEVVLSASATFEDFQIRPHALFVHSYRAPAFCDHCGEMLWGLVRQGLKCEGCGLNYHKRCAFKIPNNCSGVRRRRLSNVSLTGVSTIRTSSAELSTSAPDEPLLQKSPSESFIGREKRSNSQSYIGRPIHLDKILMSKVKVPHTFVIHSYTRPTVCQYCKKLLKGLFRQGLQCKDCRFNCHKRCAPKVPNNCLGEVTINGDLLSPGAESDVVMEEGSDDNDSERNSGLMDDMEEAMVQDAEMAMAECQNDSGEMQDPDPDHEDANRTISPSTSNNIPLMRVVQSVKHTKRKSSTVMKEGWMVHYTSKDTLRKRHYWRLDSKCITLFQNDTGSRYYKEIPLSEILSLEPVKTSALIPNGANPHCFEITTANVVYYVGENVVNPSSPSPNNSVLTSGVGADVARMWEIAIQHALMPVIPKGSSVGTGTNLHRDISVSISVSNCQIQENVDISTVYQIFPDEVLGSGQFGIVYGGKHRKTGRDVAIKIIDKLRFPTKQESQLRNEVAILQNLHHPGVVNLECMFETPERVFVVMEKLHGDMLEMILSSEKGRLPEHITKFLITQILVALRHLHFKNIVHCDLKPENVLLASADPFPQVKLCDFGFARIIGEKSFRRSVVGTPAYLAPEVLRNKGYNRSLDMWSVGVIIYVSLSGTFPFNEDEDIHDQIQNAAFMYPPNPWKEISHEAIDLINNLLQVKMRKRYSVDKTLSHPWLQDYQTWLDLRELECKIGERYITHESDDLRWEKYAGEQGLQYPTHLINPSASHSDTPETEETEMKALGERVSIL
Source text: as §1

[5] = target: 363 human kinases (including Aurora A/B/C) (Homo sapiens, UniProt Q5TCX8); conditions: MLK4; for remaining activity at 0.1 µM: 100 nM; for remaining activity at 0.1 µM / remaining activity at 0.5 µM: read-out: % Enzyme Activity (relative to DMSO controls)
Source text: as §1

[6] = target: T2, 363 human kinases (including Aurora A/B/C) (Homo sapiens, UniProt Q99986); conditions: VRK1; for remaining activity at 0.1 µM: 100 nM; for remaining activity at 0.1 µM / remaining activity at 0.5 µM: read-out: % Enzyme Activity (relative to DMSO controls)
T2 sequence (Q99986 1-396): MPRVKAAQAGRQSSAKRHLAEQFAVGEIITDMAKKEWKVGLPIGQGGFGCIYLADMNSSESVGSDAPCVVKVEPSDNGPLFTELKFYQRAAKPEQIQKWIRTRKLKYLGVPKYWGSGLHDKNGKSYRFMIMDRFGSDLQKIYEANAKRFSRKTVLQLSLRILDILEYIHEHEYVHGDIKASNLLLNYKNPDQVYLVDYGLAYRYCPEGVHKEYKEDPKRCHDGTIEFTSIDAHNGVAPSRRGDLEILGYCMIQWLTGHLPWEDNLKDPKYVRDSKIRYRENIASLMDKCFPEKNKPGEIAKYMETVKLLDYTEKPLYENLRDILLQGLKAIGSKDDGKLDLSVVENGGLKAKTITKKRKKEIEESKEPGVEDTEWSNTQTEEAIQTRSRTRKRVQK
Source text: as §1

[7] = target: 363 human kinases (including Aurora A/B/C) (Homo sapiens, UniProt Q9H2X6); conditions: HIPK2; for remaining activity at 0.1 µM: 100 nM; for remaining activity at 0.1 µM / remaining activity at 0.5 µM: read-out: % Enzyme Activity (relative to DMSO controls)
Source text: as §1

[8] = target: T3, 363 human kinases (including Aurora A/B/C) (Homo sapiens, UniProt Q9UF33); conditions: EPHA6, [ATP] 100 µM; for remaining activity at 0.1 µM: 100 nM; for remaining activity at 0.1 µM / remaining activity at 0.5 µM: read-out: % Enzyme Activity (relative to DMSO controls)
T3 sequence (Q9UF33 23-1036): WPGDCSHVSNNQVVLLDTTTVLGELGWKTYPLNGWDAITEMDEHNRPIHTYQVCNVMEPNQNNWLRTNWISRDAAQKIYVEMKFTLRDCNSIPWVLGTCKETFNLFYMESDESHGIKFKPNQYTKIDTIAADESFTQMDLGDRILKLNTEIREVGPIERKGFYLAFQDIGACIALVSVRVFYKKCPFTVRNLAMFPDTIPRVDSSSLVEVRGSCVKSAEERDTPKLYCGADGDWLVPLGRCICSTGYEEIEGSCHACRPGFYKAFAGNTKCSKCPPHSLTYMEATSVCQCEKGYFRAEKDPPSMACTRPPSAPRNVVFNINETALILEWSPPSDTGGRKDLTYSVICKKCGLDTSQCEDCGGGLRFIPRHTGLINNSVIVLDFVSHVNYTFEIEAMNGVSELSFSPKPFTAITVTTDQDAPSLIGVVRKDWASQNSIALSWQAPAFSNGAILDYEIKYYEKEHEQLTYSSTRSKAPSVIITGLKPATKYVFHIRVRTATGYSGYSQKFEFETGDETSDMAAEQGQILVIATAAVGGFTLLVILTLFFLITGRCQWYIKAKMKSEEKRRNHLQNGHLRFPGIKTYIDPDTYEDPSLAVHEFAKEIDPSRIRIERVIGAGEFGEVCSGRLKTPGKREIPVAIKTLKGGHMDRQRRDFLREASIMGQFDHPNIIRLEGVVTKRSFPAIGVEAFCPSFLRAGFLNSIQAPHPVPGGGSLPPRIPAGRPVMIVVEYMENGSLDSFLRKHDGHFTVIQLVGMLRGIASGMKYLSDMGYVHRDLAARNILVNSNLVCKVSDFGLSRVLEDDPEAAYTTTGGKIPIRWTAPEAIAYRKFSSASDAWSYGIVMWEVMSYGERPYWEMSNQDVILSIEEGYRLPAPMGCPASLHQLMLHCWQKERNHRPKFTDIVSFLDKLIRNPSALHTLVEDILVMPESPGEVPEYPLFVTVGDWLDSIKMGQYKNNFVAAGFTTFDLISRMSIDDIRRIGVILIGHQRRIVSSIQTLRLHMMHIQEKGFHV
Source text: as §1

Sequence of 363 human kinases (including Aurora A/B/C) (Homo sapiens, UniProt Q5TCX8) (Q5TCX8 whole entry): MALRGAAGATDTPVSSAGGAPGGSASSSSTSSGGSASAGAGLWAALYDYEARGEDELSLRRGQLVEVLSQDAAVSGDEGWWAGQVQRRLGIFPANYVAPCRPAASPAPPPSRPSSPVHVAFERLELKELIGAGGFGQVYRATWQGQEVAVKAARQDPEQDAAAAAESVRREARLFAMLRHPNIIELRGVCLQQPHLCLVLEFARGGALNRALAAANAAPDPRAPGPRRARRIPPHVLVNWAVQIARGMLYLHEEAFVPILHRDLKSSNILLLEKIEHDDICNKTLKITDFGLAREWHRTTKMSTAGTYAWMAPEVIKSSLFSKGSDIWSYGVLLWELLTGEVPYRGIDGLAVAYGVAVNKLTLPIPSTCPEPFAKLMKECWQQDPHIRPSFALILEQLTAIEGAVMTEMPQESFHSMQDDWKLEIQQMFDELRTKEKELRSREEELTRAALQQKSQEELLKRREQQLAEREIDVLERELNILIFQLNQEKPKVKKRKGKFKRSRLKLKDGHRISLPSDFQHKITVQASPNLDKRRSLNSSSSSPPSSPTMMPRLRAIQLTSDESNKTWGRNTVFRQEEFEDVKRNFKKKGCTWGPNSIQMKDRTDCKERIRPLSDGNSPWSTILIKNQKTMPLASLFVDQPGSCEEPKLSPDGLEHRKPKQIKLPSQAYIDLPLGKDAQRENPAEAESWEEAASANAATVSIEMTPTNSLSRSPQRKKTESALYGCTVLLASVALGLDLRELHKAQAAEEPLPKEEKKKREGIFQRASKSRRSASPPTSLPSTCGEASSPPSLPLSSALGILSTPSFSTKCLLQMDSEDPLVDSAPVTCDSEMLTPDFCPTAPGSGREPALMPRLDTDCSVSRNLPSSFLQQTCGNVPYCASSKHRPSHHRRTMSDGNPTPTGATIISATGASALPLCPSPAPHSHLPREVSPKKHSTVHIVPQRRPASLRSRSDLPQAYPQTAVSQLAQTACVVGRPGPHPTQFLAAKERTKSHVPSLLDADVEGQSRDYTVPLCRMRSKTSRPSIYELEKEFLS
Sequence of 363 human kinases (including Aurora A/B/C) (Homo sapiens, UniProt Q9H2X6) (Q9H2X6 whole entry): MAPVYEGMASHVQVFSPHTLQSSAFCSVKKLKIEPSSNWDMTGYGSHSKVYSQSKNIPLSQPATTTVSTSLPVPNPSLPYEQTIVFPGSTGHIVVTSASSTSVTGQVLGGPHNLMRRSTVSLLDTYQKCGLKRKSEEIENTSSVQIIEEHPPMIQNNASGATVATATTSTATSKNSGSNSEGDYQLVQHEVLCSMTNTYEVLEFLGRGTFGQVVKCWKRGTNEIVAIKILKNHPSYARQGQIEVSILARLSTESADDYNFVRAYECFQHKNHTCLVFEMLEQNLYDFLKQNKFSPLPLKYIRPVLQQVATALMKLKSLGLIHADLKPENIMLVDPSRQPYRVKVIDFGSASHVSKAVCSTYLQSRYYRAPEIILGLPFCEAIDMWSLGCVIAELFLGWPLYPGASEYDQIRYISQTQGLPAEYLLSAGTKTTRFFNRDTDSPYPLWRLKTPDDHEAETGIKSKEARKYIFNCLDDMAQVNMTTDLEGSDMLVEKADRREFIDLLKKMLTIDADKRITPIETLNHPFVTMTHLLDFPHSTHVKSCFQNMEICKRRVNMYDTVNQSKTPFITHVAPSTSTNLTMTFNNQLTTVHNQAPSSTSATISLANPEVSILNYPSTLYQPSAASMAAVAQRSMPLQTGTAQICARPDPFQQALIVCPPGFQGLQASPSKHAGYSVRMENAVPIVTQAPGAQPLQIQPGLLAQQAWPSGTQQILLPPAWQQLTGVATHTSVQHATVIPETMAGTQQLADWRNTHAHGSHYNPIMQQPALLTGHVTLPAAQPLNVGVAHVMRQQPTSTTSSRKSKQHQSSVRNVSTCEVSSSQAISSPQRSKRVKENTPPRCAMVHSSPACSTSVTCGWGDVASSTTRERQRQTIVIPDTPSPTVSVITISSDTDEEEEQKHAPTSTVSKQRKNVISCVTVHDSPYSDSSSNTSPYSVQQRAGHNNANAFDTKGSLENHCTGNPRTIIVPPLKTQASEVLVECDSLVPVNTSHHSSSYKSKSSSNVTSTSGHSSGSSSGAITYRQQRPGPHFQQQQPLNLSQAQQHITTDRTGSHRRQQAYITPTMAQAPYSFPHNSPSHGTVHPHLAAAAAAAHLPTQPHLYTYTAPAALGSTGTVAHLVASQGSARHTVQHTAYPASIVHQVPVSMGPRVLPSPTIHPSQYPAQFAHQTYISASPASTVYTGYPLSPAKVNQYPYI
Sequence of 363 human kinases (including Aurora A/B/C) (Homo sapiens, UniProt P09619) (P09619 33-1106): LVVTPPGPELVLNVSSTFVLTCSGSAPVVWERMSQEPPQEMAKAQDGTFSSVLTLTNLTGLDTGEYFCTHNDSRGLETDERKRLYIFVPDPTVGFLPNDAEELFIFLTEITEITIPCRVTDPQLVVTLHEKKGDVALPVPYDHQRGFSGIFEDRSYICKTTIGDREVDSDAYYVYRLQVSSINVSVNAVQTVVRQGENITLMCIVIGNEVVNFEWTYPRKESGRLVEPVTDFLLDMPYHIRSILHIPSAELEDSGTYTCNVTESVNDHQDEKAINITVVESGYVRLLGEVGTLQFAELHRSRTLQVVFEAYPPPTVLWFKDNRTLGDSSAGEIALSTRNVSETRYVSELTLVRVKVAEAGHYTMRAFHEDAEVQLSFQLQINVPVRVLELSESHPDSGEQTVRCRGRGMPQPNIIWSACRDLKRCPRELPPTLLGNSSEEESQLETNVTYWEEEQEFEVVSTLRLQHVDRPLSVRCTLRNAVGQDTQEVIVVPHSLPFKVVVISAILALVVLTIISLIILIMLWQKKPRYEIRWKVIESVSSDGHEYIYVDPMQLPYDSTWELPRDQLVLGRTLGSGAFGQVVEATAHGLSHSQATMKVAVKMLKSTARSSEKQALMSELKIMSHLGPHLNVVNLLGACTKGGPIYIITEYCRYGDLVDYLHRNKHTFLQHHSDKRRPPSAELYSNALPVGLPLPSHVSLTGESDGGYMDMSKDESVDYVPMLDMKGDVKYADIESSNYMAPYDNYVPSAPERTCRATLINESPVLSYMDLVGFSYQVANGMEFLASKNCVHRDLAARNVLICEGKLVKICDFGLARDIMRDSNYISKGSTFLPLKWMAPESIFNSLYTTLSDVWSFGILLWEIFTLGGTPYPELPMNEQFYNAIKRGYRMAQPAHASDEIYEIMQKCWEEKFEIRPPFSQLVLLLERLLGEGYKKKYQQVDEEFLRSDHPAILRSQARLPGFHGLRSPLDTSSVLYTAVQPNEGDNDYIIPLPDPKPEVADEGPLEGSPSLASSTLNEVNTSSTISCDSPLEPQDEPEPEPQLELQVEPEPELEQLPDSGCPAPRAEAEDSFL
Sequence of 363 human kinases (including Aurora A/B/C) (Homo sapiens, UniProt O60674) (O60674 whole entry): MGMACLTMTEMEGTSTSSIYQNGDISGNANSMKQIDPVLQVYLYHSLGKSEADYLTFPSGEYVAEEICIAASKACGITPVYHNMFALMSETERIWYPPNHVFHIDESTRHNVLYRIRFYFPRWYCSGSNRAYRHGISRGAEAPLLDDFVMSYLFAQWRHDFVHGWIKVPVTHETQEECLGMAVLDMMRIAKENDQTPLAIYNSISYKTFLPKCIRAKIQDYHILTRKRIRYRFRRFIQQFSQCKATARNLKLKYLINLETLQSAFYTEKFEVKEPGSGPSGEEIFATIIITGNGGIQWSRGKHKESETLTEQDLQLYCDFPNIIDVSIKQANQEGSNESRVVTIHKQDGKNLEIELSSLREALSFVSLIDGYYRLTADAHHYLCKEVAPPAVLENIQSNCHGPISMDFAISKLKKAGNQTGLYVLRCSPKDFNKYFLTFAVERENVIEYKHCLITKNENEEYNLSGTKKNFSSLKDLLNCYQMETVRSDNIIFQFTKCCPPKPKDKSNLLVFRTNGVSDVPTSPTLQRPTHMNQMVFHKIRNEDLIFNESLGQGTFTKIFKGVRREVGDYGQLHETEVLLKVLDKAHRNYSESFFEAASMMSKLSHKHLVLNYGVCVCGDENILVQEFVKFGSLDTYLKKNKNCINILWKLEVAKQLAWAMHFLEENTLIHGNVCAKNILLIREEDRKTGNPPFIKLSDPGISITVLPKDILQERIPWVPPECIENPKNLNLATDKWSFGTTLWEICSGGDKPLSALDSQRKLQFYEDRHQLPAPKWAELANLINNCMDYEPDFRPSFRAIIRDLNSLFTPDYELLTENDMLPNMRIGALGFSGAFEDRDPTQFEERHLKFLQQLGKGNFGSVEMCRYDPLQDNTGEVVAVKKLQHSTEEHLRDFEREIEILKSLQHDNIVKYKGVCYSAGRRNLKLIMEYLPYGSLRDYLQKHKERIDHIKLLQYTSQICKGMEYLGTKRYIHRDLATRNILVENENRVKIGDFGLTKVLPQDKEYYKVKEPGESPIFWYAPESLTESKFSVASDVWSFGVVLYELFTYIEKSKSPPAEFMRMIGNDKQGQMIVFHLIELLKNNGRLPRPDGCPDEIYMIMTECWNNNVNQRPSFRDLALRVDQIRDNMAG
Sequence of 363 human kinases (including Aurora A/B/C) (Homo sapiens, UniProt P06493) (P06493 whole entry): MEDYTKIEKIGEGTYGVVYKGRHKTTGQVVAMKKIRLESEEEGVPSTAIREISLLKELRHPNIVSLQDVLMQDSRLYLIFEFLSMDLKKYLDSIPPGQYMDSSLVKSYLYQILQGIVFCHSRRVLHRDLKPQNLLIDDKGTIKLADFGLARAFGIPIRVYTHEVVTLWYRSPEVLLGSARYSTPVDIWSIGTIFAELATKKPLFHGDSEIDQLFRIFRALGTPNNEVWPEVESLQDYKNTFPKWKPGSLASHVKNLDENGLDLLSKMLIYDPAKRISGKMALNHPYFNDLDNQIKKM

| SMILES | remaining activity at 0.1 µM [1] | remaining activity at 0.1 µM ([2]; CDK1/cyclin A, [ATP] 10 µM) | remaining activity at 0.1 µM ([2]; CDK1/cyclin B, [ATP] 20 µM) | remaining activity at 0.1 µM ([2]; CDK1/cyclin E, [ATP] 20 µM) | remaining activity at 0.1 µM [3] | remaining activity at 0.1 µM [4] | remaining activity at 0.1 µM [5] | remaining activity at 0.1 µM [6] | remaining activity at 0.1 µM [7] | remaining activity at 0.1 µM [8] | remaining activity at 0.5 µM ([1]; 500 nM) | remaining activity at 0.5 µM ([2]; CDK1/cyclin A, [ATP] 10 µM) | remaining activity at 0.5 µM ([2]; CDK1/cyclin B, [ATP] 20 µM) | remaining activity at 0.5 µM ([2]; CDK1/cyclin E, [ATP] 20 µM) | remaining activity at 0.5 µM ([3]; 500 nM) | remaining activity at 0.5 µM ([4]; 500 nM) | remaining activity at 0.5 µM ([5]; 500 nM) | remaining activity at 0.5 µM ([6]; 500 nM) | remaining activity at 0.5 µM ([7]; 500 nM) | remaining activity at 0.5 µM ([8]; 500 nM) | other results |
| --- | --- | --- | --- | --- | --- | --- | --- | --- | --- | --- | --- | --- | --- | --- | --- | --- | --- | --- | --- | --- | --- |
| CCn1cc(-c2ccnc3[nH]c(-c4cccc(CN(C)C)c4)cc23)c(-c2ccc(NC(=O)N(C)C)cc2)n1 [GSK1070916] | 104% | 106% | 84.6% | 100% | 90.4% | 85.4% | 89% | 89.3% | 104% | 89.4% |  |  |  |  |  |  |  |  |  |  |  |
| O=C(O)[C@]1(Cc2cccc(Nc3nccs3)n2)CC[C@@H](Oc2cccc(Cl)c2F)CC1 [MK-5108] | 31.1% | 92.7% | 95.3% | 101% | 86.7% | 108% | 113% | 86.9% | 89.2% | 5.77% | 7.8% | 76.5% | 64% | 84.6% | 67.2% | 99% | 34.7% | 94% | 50% | 1.6% |  |
| O=C(c1cccc(Cl)c1F)N1CCN(Cc2cccc(Nc3nccs3)n2)CC1 [MK-8745] |  |  |  |  |  |  |  |  |  |  | 65.6% | 86.8% | 79.4% | 94.9% | 89.7% | 98.5% | 91.5% | 97.3% | 106% | 34.6% | % Enzyme Activity (relative to DMSO controls) ([1]; 500 nM): 62.84%; % Enzyme Activity (relative to DMSO controls) ([2]; CDK1/cyclin A, [ATP] 10 µM): 86.34%; % Enzyme Activity (relative to DMSO controls) ([2]; CDK1/cyclin B, [ATP] 20 µM): 78.80%; % Enzyme Activity (relative to DMSO controls) ([2]; CDK1/cyclin E, [ATP] 20 µM): 93.92%; % Enzyme Activity (relative to DMSO controls) ([3]; 500 nM): 88.70%; % Enzyme Activity (relative to DMSO controls) ([4]; 500 nM): 97.14%; % Enzyme Activity (relative to DMSO controls) ([5]; 500 nM): 91.32%; % Enzyme Activity (relative to DMSO controls) ([6]; 500 nM): 94.39%; % Enzyme Activity (relative to DMSO controls) ([7]; 500 nM): 102.33%; % Enzyme Activity (relative to DMSO controls) ([8]; 500 nM): 34.30% |
